Results reported in paper PMC5218480 (PLoS ONE, 2017).
Like-named read-outs stand apart in the source and are kept apart here.

Legend:
HDAC1 = target: T1, HDAC1 (Homo sapiens, UniProt Q13547); test: HDAC enzyme assay, in vitro biochemical
T1 construct: purchased BPS Biosciences
Experimental: (§1) In vitro biochemical assays were performed as described previously. Specifically, compounds were dissolved and diluted in assay buffer (50 mM HEPES, pH 7.4, 100 mM KCl, 0.001% Tween-20, 0.05% BSA, and 20 μM Tris (2-carboxyethyl) phosphine) to 6-fold the final concentration. […] The amount of substrate (acetyl-lysine tripeptide) used for each enzyme was equal to the Michaelis constant (Km), as determined by a titration curve. Substrate was diluted in assay buffer to 6-fold of the final concentration with 0.3 μM sequencing grade trypsin (Sigma-Aldrich). The substrate/trypsin mix was added to the enzyme/compound mix and the plate was shaken for 5 seconds and then placed into a SpectraMax M5 microtiter (Molecular Devices) plate reader. The enzymatic reaction was monitored over 30 minutes for release of […] after deacetylation of the lysine side chain in the peptide substrate, and the linear rate of the reaction was calculated.

HDAC2 = target: T2, HDAC2 (Homo sapiens, UniProt Q92769); test: HDAC enzyme assay, in vitro biochemical
T2 construct: purchased BPS Biosciences
Experimental: as §1

HDAC3 = target: T3, HDAC3 (Homo sapiens, UniProt O15379); test: HDAC enzyme assay, in vitro biochemical; conditions: pre-incubated 24 hours at 4°C; n = 3; read-out: IC50 against HDAC3
T3 construct: purchased BPS Biosciences
Experimental: as §1

[1] = test system: MV-4-11, Kasumi-1 and HL-60 cell lines; test: Histone acetylation by immunoblotting; assay type: cell-based, human; conditions: 24 hours, increasing doses
Excerpt: The EpiQuick Total Histone Extraction kit (Epigentek) was used to isolate histones. Histone lysates were size separated on Bolt 10% Bis-Tris gradient gels (Life Technologies), transferred to polyvinylidene difluoride membranes, blocked in 5% BSA, and detected using standard western blotting techniques.

MV-4-11 and HL-60 cells [2] = test: Flow cytometry, surface level of CD11b (differentiation); assay type: cell-based, human; conditions: single agent, 72 hours
Experimental: (§2) All compounds and/or solvent DMSO were added concurrently at the indicated doses. Flow cytometry was performed to measure surface level of CD11b, cell cycle distribution, and induction of apoptosis. CD11b and apoptosis were analyzed on a FC500 flow cytometer ([…]) and cell cycle profiled on an Attune NxT (Life Technologies).
The frequency of CD11b positive cells out of total viable cells identified by forward and side scatter profile was quantified.

MV-4-11 and HL-60 cells [3] = test: Flow cytometry, cell cycle (EdU, S phase); assay type: cell-based, human; conditions: single agent, 72 hours
Experimental: as §2
EdU labeled cells were then mixed with FxCycle Far Red Stain (Life Technologies) and 100 μg RNase A cocktail (Life technologies) for 30 minutes before flow cytometry analysis. Edu positive populations representing S phase cells were quantified.

MV-4-11 and HL-60 cells [4] = test: Flow cytometry, apoptosis (Annexin V); assay type: cell-based, human; conditions: single agent, 96 hours
Experimental: as §2
Annexin V-positive populations were quantified.

MV-4-11 and HL-60 cells [5] = test: Quantitative real time PCR (qPCR) of CDKN1A, CDKN1C, GATA2, HES1; assay type: cell-based, human; conditions: MV-4-11 and HL-60, 48 hours
Experimental: RNA isolations were performed on a Qiacube (Qiagen) using the RNeasy Micro Kit (Qiagen) according to manufacturer’s protocol. RNA was converted to cDNA using the High Capacity RNA-to-cDNA Kit (Life Technologies) and qPCR performed using the Taqman Gene Expression Max Mix according to manufacturer’s protocol (Applied Bioscience). The following ThermoFisher taqman probes were used: GATA2 (Hs01060665_g1), GAPDH (Hs0275899_g1), ACTB (Hs00231119_m1), CDKN1A (Hs00355782_m1), CDKN1C (Hs00175938_m1), HES1 (Hs00172878_m1).

[6] = test system: live leukemic cells of fresh bone marrow samples from AML patients; conditions: read-out: mean IC50, proliferation of primary leukemic cells; 96 hours, n = 38 patient samples
Kasumi-1 cells = test: Cell viability assay (CellTiter-Glo); conditions: read-out: IC50 cell viability Kasumi-1; 72 hours
Experimental: (§3) MV-4-11, Kasumi-1, and HL-60 AML cell lines were all obtained from ATCC. MOLM-13 and NB-4 cell lines were obtained from DSMZ. […] The identity of each cell line was validated and documented by the suppliers. All experiments were performed with cells maintained at low passage numbers.
(§4) Compounds and/or solvent dimethyl sulfoxide (DMSO) were added at the same time using an HP D300 digital dispenser (Hewlett Packard) in triplicate or quadruplicate and incubated for 72 hours at 37°C. Viability was measured by adding 25 μL CellTiter-Glo (Promega), incubating for 10 minutes, and measuring luminescence on a SpectraMax (Molecular Devices). […] CI < 1 indicates synergism, CI = 1 indicates additivity, and CI > 1 indicates antagonism.

HL-60 cells = test: Cell viability assay (CellTiter-Glo); conditions: read-out: IC50 cell viability HL-60; 72 hours
Experimental: as §3, §4

NB-4 cells = test: Cell viability assay (CellTiter-Glo); conditions: read-out: IC50 cell viability NB-4; 72 hours
Experimental: as §3
Compounds and/or solvent dimethyl sulfoxide (DMSO) were added at the same time using an HP D300 digital dispenser (Hewlett Packard) in triplicate or quadruplicate and incubated for 72 hours at 37°C. Viability was measured by adding 25 μL CellTiter-Glo (Promega), incubating for 10 minutes, and measuring luminescence on a SpectraMax (Molecular Devices).

[7] = test system: five human AML cell lines (MV-4-11, Kasumi-1, HL-60, MOLM-13, NB-4); test: Cell viability assay, summary over five human AML cell lines; conditions: 72 hours
Experimental: as §3, §4

MV-4-11 cells = test: Cell viability assay (CellTiter-Glo), single agent and combination; conditions: read-out: IC50 cell viability MV-4-11; 72 hours
Experimental: as §3, §4

MOLM-13 cells = test: as above; conditions: read-out: IC50 cell viability MOLM-13; 72 hours
Experimental: as §3, §4

T1 sequence (Q13547 whole entry): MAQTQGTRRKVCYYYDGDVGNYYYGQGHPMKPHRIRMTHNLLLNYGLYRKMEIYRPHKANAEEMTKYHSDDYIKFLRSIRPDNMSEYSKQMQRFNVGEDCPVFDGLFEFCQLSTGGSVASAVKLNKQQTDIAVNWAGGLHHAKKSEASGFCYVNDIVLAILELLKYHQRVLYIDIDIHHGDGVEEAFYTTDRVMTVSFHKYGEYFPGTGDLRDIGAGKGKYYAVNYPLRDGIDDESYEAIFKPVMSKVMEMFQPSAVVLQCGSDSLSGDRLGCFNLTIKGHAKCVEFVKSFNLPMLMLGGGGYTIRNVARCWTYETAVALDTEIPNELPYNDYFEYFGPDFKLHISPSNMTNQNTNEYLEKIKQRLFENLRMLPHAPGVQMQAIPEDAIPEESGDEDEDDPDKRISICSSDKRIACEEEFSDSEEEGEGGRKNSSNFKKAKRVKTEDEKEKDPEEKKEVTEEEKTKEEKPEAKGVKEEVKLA
T2 sequence (Q92769 whole entry): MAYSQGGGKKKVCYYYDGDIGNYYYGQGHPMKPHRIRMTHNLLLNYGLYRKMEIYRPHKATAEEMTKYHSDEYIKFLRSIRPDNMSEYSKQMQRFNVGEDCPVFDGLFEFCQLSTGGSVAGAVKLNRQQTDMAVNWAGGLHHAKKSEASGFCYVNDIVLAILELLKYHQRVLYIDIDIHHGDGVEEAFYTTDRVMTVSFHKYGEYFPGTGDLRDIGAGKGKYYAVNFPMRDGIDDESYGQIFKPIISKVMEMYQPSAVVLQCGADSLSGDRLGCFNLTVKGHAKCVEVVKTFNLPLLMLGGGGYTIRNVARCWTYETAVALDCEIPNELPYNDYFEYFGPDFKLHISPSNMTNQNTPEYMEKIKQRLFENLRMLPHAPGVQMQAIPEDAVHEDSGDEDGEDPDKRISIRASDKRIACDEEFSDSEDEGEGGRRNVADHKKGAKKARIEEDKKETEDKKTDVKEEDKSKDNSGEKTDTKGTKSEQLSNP
T3 sequence (O15379 whole entry): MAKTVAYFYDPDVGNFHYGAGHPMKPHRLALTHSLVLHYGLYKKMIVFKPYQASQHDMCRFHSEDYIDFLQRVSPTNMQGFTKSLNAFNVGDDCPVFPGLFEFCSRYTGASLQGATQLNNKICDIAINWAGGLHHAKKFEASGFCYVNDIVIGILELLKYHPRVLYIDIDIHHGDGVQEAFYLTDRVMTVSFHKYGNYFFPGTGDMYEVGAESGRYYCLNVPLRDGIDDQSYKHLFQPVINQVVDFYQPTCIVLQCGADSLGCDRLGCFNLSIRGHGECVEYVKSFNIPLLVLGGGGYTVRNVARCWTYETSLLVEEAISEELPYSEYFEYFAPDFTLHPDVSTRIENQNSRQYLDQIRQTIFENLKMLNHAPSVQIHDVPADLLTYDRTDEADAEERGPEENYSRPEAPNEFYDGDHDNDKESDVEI
T3 sequence (Q9Y618 395-489 partner limits assumed): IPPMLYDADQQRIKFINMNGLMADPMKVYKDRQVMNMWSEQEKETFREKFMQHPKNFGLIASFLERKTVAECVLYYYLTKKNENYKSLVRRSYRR

Structure (SMILES): Nc1ccc(-c2cccs2)cc1NC(=O)c1ccc2nc(N3CCNCC3)ccc2c1 [ACY-957]
- selectivity for HDAC1 over HDAC3 (HDAC1): more than 150 fold
- IC50 (HDAC1; pre-incubated 24 hours at 4°C, n = 3, read-out: IC50 against HDAC1): 7.2 nM
- selectivity for HDAC2 over HDAC3 (HDAC2): approximately 50 fold
- IC50 (HDAC2; pre-incubated 24 hours at 4°C, n = 3, read-out: IC50 against HDAC2): 26 nM
- IC50 (HDAC3): 1160 nM
- acetylation on histone H2B lysine 5 (H2BK5ac) and histone H3 lysine 56 (H3K56ac) [1]: dose-dependent accumulation
- differentiation, surface expression of CD11b (MV-4-11 and HL-60 cells [2]): dose-dependent induction of differentiation
- cells in S phase (MV-4-11 and HL-60 cells [3]): dose-dependent reduction of cells in S phase
- apoptosis, staining for annexin V (MV-4-11 and HL-60 cells [4]): increased staining for annexin V
- expression of CDKN1A, CDKN1C, GATA2 and HES1 (qPCR) (MV-4-11 and HL-60 cells [5]): up-regulated
- IC50 [6]: 1100 nM
- IC50 (Kasumi-1 cells): 1600 nM
- IC50 (HL-60 cells): 2200 nM
- IC50 (NB-4 cells): 1600 nM
- IC50 ([7]; read-out: IC50 values cell viability, range, five human AML cell lines, both compounds): 800 to 3300 nM
- IC50 ([7]; read-out: average IC50 value, viability of AML cells, average of five AML cell lines): 1500 nM
- IC50 (MV-4-11 cells): 800 nM
- IC50 (MOLM-13 cells): 1600 nM
